From PubChem BioAssay (NCI)
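Tested at 5 concentrations; 48 h exposure; 96-well plates; endpoints linearly interpolated, else capped at highest concentration. TGI marks complete inhibition of growth.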

Assays:
Experiment in all cases: inhibition of tumour cell growth, NCI panel, 48 h
SK-MEL-5 melanoma = system: SK-MEL-5 melanoma
UACC-257 melanoma = system: UACC-257 melanoma
NCI-H522 lung = system: NCI-H522 lung
HOP-62 NSCLC = system: HOP-62 NSCLC
MDA-N = system: MDA-N
TK-10 renal = system: TK-10 renal
K-562 leukemia = system: K-562 leukemia
M14 melanoma = system: M14 melanoma
LOX IMVI melanoma = system: LOX IMVI melanoma
SNB-75 CNS = system: SNB-75 CNS
CAKI-1 renal = system: CAKI-1 renal
OVCAR-3 ovarian = system: OVCAR-3 ovarian
A498 renal = system: A498 renal
HCC-2998 colon = system: HCC-2998 colon
CCRF-CEM leukemia = system: CCRF-CEM leukemia
SK-OV-3 ovarian = system: SK-OV-3 ovarian
DU-145 prostate = system: DU-145 prostate
MDA-MB-435 = system: MDA-MB-435
NCI/ADR-RES ovarian = system: NCI/ADR-RES ovarian
SK-MEL-28 melanoma = system: SK-MEL-28 melanoma
SR leukemia = system: SR leukemia
COLO 205 colon = system: COLO 205 colon
SN12C renal = system: SN12C renal
A549 NSCLC = system: A549 NSCLC
NCI-H460 lung = system: NCI-H460 lung
SF-268 CNS = system: SF-268 CNS
ACHN renal = system: ACHN renal
RPMI-8226 leukemia = system: RPMI-8226 leukemia
EKVX NSCLC = system: EKVX NSCLC
SW-620 colon = system: SW-620 colon
SF-295 CNS = system: SF-295 CNS
MALME-3M melanoma = system: MALME-3M melanoma
786-0 renal = system: 786-0 renal
HCT-15 colon = system: HCT-15 colon
HL-60(TB) leukemia = system: HL-60(TB) leukemia
U251 CNS = system: U251 CNS
PC-3 prostate = system: PC-3 prostate
RXF 393 renal = system: RXF 393 renal
MDA-MB-231 breast = system: MDA-MB-231 breast
UO-31 renal = system: UO-31 renal
MOLT-4 leukemia = system: MOLT-4 leukemia
SNB-19 CNS = system: SNB-19 CNS
HS 578T breast = system: HS 578T breast
NCI-H226 lung = system: NCI-H226 lung
HCT-116 colon = system: HCT-116 colon
UACC-62 melanoma = system: UACC-62 melanoma
T-47D breast = system: T-47D breast
KM12 colon = system: KM12 colon
SK-MEL-2 melanoma = system: SK-MEL-2 melanoma
MCF7 breast = system: MCF7 breast
NCI-H23 lung = system: NCI-H23 lung
SF-539 CNS = system: SF-539 CNS
OVCAR-5 ovarian = system: OVCAR-5 ovarian
HT29 colon = system: HT29 colon
HOP-92 NSCLC = system: HOP-92 NSCLC
OVCAR-8 ovarian = system: OVCAR-8 ovarian
IGROV1 ovarian = system: IGROV1 ovarian
OVCAR-4 ovarian = system: OVCAR-4 ovarian

For O=c1ssc2ncccc12, the TGI (SK-MEL-5 melanoma) was 25.9 µM, the TGI (UACC-257 melanoma) was 50.4 µM and the TGI (NCI-H522 lung) was 28.9 µM. For the same compound, the TGI (HOP-62 NSCLC) was 45.5 µM, the TGI (MDA-N) was 34.9 µM and the TGI (TK-10 renal) was > 100 µM. For the same compound, the TGI (K-562 leukemia) was > 100 µM, the TGI (M14 melanoma) was 41.8 µM and the TGI (LOX IMVI melanoma) was 35 µM. For the same compound, the TGI (SNB-75 CNS) was 34.9 µM, the TGI (CAKI-1 renal) was > 100 µM and the TGI (OVCAR-3 ovarian) was 35.6 µM. The TGI (A498 renal) was > 100 µM, the TGI (HCC-2998 colon) was 39.3 µM and the TGI (CCRF-CEM leukemia) was > 100 µM. For the same compound, the TGI (SK-OV-3 ovarian) was > 100 µM, the TGI (DU-145 prostate) was > 100 µM and the TGI (MDA-MB-435) was 31.5 µM. For the same compound, the TGI (NCI/ADR-RES ovarian) was > 100 µM, the TGI (SK-MEL-28 melanoma) was 42.5 µM and the TGI (SR leukemia) was > 100 µM. For the same compound, the TGI (COLO 205 colon) was 34.8 µM, the TGI (SN12C renal) was 28.8 µM and the TGI (A549 NSCLC) was 39.7 µM. The TGI (NCI-H460 lung) was 52.3 µM, the TGI (SF-268 CNS) was 69.6 µM and the TGI (ACHN renal) was 31.9 µM. For the same compound, the TGI (RPMI-8226 leukemia) was 40.5 µM, the TGI (EKVX NSCLC) was > 100 µM and the TGI (SW-620 colon) was 43.6 µM. The TGI (SF-295 CNS) was > 100 µM, the TGI (MALME-3M melanoma) was 50.2 µM and the TGI (786-0 renal) was 38.2 µM. For the same compound, the TGI (HCT-15 colon) was 27.4 µM, the TGI (HL-60(TB) leukemia) was > 100 µM and the TGI (U251 CNS) was 33.1 µM. For the same compound, the TGI (PC-3 prostate) was > 100 µM, the TGI (RXF 393 renal) was 37.4 µM and the TGI (MDA-MB-231 breast) was 26.2 µM. The TGI (UO-31 renal) was 32 µM, the TGI (MOLT-4 leukemia) was > 100 µM and the TGI (SNB-19 CNS) was > 100 µM. The TGI (HS 578T breast) was > 100 µM, the TGI (NCI-H226 lung) was 7.65 µM and the TGI (HCT-116 colon) was 40.1 µM. The TGI (UACC-62 melanoma) was 24 µM, the TGI (T-47D breast) was > 100 µM and the TGI (KM12 colon) was 48 µM. For the same compound, the TGI (SK-MEL-2 melanoma) was 27.8 µM, the TGI (MCF7 breast) was 33 µM and the TGI (NCI-H23 lung) was > 100 µM. It also gave a TGI (SF-539 CNS) of 70.5 µM, a TGI (OVCAR-5 ovarian) of 55.1 µM and a TGI (HT29 colon) of 53.6 µM. The TGI (HOP-92 NSCLC) was > 100 µM.

For CCOC(=O)C(NC(=O)CC)(Nc1ccc(S(=O)(=O)Nc2ncccn2)cc1)C(F)(F)F (stereo not given), the TGI (SK-MEL-5 melanoma) was > 100 µM, the TGI (UACC-257 melanoma) was > 100 µM and the TGI (NCI-H522 lung) was > 100 µM. The TGI (HOP-62 NSCLC) was > 100 µM, the TGI (MDA-N) was > 100 µM and the TGI (K-562 leukemia) was > 100 µM. For the same compound, the TGI (OVCAR-8 ovarian) was > 100 µM, the TGI (M14 melanoma) was > 100 µM and the TGI (LOX IMVI melanoma) was > 100 µM. The TGI (SNB-75 CNS) was > 100 µM, the TGI (CAKI-1 renal) was > 100 µM and the TGI (OVCAR-3 ovarian) was > 100 µM. For the same compound, the TGI (HCC-2998 colon) was > 100 µM, the TGI (CCRF-CEM leukemia) was > 100 µM and the TGI (SK-OV-3 ovarian) was > 100 µM. The TGI (DU-145 prostate) was > 100 µM, the TGI (MDA-MB-435) was > 100 µM and the TGI (NCI/ADR-RES ovarian) was > 100 µM. The TGI (SK-MEL-28 melanoma) was > 100 µM, the TGI (SR leukemia) was > 100 µM and the TGI (COLO 205 colon) was > 100 µM. The TGI (SN12C renal) was > 100 µM, the TGI (A549 NSCLC) was > 100 µM and the TGI (NCI-H460 lung) was > 100 µM. For the same compound, the TGI (SF-268 CNS) was > 100 µM, the TGI (ACHN renal) was > 100 µM and the TGI (RPMI-8226 leukemia) was > 100 µM. The TGI (EKVX NSCLC) was > 100 µM, the TGI (SW-620 colon) was > 100 µM and the TGI (SF-295 CNS) was > 100 µM. The TGI (MALME-3M melanoma) was > 100 µM, the TGI (786-0 renal) was > 100 µM and the TGI (HCT-15 colon) was > 100 µM. For the same compound, the TGI (HL-60(TB) leukemia) was > 100 µM, the TGI (U251 CNS) was > 100 µM and the TGI (PC-3 prostate) was > 100 µM. For the same compound, the TGI (RXF 393 renal) was > 100 µM, the TGI (IGROV1 ovarian) was > 100 µM and the TGI (MDA-MB-231 breast) was > 100 µM. For the same compound, the TGI (UO-31 renal) was > 100 µM, the TGI (MOLT-4 leukemia) was > 100 µM and the TGI (SNB-19 CNS) was > 100 µM. The TGI (HS 578T breast) was > 100 µM, the TGI (NCI-H226 lung) was > 100 µM and the TGI (HCT-116 colon) was > 100 µM. The TGI (UACC-62 melanoma) was > 100 µM, the TGI (T-47D breast) was > 100 µM and the TGI (KM12 colon) was > 100 µM. The TGI (OVCAR-4 ovarian) was > 100 µM, the TGI (MCF7 breast) was > 100 µM and the TGI (NCI-H23 lung) was > 100 µM. The TGI (SF-539 CNS) was > 100 µM, the TGI (OVCAR-5 ovarian) was > 100 µM and the TGI (HT29 colon) was > 100 µM. For the same compound, the TGI (HOP-92 NSCLC) was > 100 µM.
